Experimental data: ChEMBL document CHEMBL5291721, “A preclinical secondary pharmacology resource illuminates target-adverse drug reaction associations of marketed drugs” (Nat Commun, 2023)

Assays:
[1] = biological target: Gamma-aminobutyric acid receptor subunit alpha-1/alpha-2/beta-2/gamma-2 (Homo sapiens, UniProt P14867+P18507+P47869+P47870); format: functional, cell-based
[2] = biological target: T1, Endothelin receptor type B (Homo sapiens, UniProt P24530)
T1 sequence (P24530 whole entry): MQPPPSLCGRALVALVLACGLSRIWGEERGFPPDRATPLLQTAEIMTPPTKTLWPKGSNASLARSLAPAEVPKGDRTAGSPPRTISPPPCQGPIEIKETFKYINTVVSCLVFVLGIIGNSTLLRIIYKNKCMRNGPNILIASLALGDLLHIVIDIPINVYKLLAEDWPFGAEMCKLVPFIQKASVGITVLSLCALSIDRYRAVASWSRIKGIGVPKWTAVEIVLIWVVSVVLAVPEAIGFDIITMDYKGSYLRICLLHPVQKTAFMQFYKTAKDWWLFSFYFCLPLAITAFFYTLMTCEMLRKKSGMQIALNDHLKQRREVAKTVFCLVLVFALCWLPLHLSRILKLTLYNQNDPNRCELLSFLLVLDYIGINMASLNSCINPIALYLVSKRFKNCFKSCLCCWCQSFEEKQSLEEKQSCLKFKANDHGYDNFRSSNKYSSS

Histamine H2 receptor = Histamine H2 receptor (Homo sapiens, UniProt P25021)
Sequence of Histamine H2 receptor (P25021 whole entry): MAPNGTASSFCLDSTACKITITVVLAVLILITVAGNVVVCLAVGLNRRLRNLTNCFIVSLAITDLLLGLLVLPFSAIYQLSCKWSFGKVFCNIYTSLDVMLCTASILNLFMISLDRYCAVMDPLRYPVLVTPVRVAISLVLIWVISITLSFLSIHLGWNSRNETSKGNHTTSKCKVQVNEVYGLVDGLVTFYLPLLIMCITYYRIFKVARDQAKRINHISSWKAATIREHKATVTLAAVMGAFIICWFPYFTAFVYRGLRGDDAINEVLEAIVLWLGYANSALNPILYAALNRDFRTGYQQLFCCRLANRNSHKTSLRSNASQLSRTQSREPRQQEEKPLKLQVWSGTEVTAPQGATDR

[3] = biological target: T2, Alpha-2A adrenergic receptor (Homo sapiens, UniProt P08913)
T2 sequence (P08913 whole entry): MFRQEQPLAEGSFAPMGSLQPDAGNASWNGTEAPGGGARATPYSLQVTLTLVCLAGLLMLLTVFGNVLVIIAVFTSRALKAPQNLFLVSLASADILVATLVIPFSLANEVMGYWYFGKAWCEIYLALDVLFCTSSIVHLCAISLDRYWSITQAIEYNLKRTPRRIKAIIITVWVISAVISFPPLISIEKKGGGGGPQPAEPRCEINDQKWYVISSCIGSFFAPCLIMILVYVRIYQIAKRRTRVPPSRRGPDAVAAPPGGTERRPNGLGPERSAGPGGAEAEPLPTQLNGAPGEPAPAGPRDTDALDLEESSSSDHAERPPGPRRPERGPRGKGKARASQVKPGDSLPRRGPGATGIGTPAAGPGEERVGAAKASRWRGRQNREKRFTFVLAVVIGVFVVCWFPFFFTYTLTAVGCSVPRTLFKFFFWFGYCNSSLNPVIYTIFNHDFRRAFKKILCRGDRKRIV

Glucagon receptor = Glucagon receptor (Homo sapiens, UniProt P47871)
Sequence of Glucagon receptor (P47871 whole entry): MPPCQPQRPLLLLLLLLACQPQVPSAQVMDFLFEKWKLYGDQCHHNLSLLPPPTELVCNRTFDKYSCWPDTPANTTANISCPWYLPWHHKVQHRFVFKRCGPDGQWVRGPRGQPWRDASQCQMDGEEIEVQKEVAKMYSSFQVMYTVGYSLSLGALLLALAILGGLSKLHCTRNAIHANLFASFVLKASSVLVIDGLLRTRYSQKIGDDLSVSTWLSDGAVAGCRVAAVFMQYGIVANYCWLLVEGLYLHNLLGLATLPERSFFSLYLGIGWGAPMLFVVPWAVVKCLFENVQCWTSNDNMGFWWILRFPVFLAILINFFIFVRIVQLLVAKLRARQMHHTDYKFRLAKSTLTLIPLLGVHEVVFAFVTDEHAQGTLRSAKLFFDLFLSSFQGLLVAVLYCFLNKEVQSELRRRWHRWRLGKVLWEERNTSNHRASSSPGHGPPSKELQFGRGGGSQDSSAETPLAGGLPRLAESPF

[4] = biological target: T3, Corticotropin-releasing factor receptor 2 (Homo sapiens, UniProt Q13324)
T3 sequence (Q13324 whole entry): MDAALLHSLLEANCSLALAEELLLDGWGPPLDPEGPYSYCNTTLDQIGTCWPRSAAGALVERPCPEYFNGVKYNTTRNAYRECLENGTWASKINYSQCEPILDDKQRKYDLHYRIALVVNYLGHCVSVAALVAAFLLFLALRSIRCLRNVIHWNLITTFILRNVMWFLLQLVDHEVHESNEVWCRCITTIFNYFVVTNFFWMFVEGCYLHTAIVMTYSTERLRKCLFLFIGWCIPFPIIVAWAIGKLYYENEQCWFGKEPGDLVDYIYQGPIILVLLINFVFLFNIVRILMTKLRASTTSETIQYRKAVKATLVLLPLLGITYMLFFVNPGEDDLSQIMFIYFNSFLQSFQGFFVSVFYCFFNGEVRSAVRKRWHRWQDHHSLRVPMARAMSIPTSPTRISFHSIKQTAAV

B1 bradykinin receptor = biological target: T4, B1 bradykinin receptor (Homo sapiens, UniProt P46663)
T4 sequence (P46663 whole entry): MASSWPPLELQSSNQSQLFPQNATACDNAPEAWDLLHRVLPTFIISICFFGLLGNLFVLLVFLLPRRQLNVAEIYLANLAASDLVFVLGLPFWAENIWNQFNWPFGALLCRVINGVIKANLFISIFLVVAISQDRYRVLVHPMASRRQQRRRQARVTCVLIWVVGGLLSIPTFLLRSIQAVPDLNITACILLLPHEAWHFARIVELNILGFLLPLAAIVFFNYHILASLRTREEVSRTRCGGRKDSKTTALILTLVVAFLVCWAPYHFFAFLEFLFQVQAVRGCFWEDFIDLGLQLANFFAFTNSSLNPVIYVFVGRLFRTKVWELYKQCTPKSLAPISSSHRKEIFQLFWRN
Also: assay procedure not described here.

Sequence of Gamma-aminobutyric acid receptor subunit alpha-1/alpha-2/beta-2/gamma-2 (P14867 whole entry): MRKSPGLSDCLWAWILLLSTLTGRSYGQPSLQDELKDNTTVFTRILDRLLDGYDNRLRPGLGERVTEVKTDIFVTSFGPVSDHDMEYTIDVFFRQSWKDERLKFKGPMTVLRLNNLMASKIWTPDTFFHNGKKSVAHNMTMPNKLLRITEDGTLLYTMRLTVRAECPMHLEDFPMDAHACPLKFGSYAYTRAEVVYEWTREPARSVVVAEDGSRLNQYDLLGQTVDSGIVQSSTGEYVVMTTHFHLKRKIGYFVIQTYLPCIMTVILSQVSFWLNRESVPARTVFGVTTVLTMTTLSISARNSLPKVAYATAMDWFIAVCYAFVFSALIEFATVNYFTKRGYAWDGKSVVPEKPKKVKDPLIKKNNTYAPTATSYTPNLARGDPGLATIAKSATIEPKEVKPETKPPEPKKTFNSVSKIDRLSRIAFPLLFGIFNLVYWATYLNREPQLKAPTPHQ
Sequence of Gamma-aminobutyric acid receptor subunit alpha-1/alpha-2/beta-2/gamma-2 (P47870 whole entry): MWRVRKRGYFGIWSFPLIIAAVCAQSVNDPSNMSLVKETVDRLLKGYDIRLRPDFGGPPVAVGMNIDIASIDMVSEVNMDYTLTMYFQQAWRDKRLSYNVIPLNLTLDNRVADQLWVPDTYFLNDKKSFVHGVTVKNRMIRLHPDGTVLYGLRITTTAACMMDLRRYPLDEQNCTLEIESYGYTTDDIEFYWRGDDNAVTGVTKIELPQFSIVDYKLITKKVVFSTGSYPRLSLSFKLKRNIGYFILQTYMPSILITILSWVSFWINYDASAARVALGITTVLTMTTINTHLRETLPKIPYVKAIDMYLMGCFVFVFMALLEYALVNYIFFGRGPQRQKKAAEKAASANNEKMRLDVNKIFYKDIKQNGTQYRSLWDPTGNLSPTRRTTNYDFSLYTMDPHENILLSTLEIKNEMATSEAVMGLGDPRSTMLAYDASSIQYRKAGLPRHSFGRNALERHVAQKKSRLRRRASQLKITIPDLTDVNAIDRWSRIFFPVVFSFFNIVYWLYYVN
Sequence of Gamma-aminobutyric acid receptor subunit alpha-1/alpha-2/beta-2/gamma-2 (P18507 whole entry): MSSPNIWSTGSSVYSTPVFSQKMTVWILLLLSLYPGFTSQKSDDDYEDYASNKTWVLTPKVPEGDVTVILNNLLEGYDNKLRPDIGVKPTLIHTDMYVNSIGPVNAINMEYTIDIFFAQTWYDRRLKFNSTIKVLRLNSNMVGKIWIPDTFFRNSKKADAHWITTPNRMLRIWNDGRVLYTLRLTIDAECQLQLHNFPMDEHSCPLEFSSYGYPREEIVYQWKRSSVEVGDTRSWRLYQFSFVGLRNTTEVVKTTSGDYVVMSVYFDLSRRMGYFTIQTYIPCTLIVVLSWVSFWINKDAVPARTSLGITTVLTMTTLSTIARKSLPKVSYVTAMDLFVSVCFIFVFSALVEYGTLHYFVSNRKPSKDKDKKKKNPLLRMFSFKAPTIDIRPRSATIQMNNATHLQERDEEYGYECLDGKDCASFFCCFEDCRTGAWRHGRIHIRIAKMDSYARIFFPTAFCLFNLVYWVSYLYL
Sequence of Gamma-aminobutyric acid receptor subunit alpha-1/alpha-2/beta-2/gamma-2 (P47869 whole entry): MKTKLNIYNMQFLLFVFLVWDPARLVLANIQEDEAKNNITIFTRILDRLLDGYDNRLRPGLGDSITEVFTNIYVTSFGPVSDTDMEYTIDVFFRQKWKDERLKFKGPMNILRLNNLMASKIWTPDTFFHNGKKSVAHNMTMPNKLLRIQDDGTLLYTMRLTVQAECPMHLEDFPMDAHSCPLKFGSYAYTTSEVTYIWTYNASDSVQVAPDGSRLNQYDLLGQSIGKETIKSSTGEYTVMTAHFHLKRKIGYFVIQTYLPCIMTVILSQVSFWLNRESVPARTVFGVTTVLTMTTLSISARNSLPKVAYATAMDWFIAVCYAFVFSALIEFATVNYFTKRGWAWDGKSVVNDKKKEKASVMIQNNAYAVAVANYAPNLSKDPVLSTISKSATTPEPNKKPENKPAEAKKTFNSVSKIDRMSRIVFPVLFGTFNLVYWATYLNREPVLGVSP

| Compound | AC50 [1] | AC50 [2] | AC50 (Histamine H2 receptor) | AC50 [3] | AC50 (Glucagon receptor) | AC50 [4] | AC50 (B1 bradykinin receptor) |
| --- | --- | --- | --- | --- | --- | --- | --- |
| C=C1CC[C@@]2(O)[C@H]3Cc4ccc(O)c5c4[C@@]2(CCN3CC2CC2)[C@H]1O5 | > 30 µM | – | – | – | – | – | – |
| Nc1ncnc2c1ncn2[C@@H]1O[C@H](COP(=O)(O)O)[C@@H](O)[C@H]1O [ADENOSINE PHOSPHATE] | > 30 µM | – | – | – | – | – | – |
| CN1CCc2cccc3c2[C@H]1Cc1ccc(O)c(O)c1-3 [APOMORPHINE] | – | > 30 µM | > 10 µM | 2.37 µM | > 30 µM | > 30 µM | > 30 µM |
| CC(C)c1c(C(=O)Nc2ccccc2)c(-c2ccccc2)c(-c2ccc(F)cc2)n1CC[C@@H](O)C[C@@H](O)CC(=O)O [ATORVASTATIN] | – | > 30 µM | > 10 µM | > 10 µM | > 30 µM | > 30 µM | > 30 µM |
| CCCCCOC(=O)Nc1nc(=O)n([C@@H]2O[C@H](C)[C@@H](O)[C@H]2O)cc1F [CAPECITABINE] | > 30 µM | – | – | – | – | – | – |
| CN[C@@H](C)[C@H](O)c1ccccc1 [EPHEDRINE] | – | > 30 µM | > 10 µM | > 10 µM | > 30 µM | > 30 µM | > 30 µM |
| CCNC(C)Cc1cccc(C(F)(F)F)c1 (configuration not stated) [FENFLURAMINE] | – | > 30 µM | – | – | > 30 µM | > 30 µM | > 30 µM |
| CC/C=C\C/C=C\C/C=C\CCCCCCCC(=O)O [LINOLENIC ACID] | > 10 µM | – | – | – | – | – | – |
| Cc1cccc(C)c1NC(=O)C1CCCCN1C (configuration not stated) [MEPIVACAINE] | > 30 µM | – | – | – | – | – | – |
| C[C@H]1C[C@@H]2[C@H]([C@@H](O)C[C@@]3(C)[C@H]2CC[C@]3(O)C(=O)COC(=O)CCC(=O)O)[C@@]2(C)C=CC(=O)C=C12 [METHYLPREDNISOLONE HEMISUCCINATE] | > 30 µM | – | – | – | – | – | – |
| Cc1cc(-c2ccccc2)nnc1NCCN1CCOCC1 [MINAPRINE] | – | > 30 µM | > 10 µM | > 10 µM | > 30 µM | > 30 µM | > 30 µM |
| CCCCC(C)(O)C/C=C/[C@H]1[C@H](O)CC(=O)[C@@H]1CCCCCCC(=O)OC (some centres not stated) [MISOPROSTOL] | > 30 µM | – | – | – | – | – | – |
| NC(=O)C[S+]([O-])C(c1ccccc1)c1ccccc1 (configuration not stated) [MODAFINIL] | – | 23.5 µM | > 10 µM | > 10 µM | > 30 µM | > 30 µM | > 30 µM |
| O=C(O)CCCc1ccccc1 [PHENYLBUTANOIC ACID] | – | > 30 µM | – | > 10 µM | > 30 µM | > 30 µM | > 10 µM |
| CCN(CC)CCOC(=O)c1ccc(N)cc1 [PROCAINE] | – | – | – | > 10 µM | – | – | – |
| CCCOc1ccc(C(=O)OCCN(CC)CC)cc1N [PROPARACAINE] | > 30 µM | – | – | – | – | – | – |
| C1COC(NC(C2CC2)C2CC2)=N1 [RILMENIDINE] | – | – | – | 3.49 µM | – | – | – |
| Nc1nc2ccc(OC(F)(F)F)cc2s1 [RILUZOLE] | > 30 µM | – | – | – | – | – | – |
| Cc1ccc(-c2nc3ccc(C)cn3c2CC(=O)N(C)C)cc1 [ZOLPIDEM] | – | > 30 µM | > 10 µM | > 10 µM | > 30 µM | > 30 µM | > 30 µM |
| CN1CCN(C(=O)OC2c3nccnc3C(=O)N2c2ccc(Cl)cn2)CC1 (configuration not stated) [ZOPICLONE] | – | > 30 µM | > 10 µM | > 10 µM | > 30 µM | > 30 µM | > 30 µM |
